Data published in patent US12077503B2, “Substituted cyclic amides and their use as herbicides” (FMC CORPORATION, priority 2015, dated 2024).

Columns and labels:
Format in all cases: in vivo
[1] = system: wheat (Triticum aestivum); test: Test A postemergence; conditions: postemergence, 0 to 100 scale (0 no effect, 100 complete control)
Method in brief: (§1)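 Preemergence soil spray on seeded pots or post-emergence spray on 1–2 leaf plants, in loam–sand blend. Greenhouse ~10 d. Visual rating 0–100 against untreated plants.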

Kochia (Kochia scoparia) [2] = test: Test A postemergence; conditions: postemergence, 0 to 100 scale (0 no effect, 100 complete control)
Method in brief: as §1

[3] = system: blackgrass (Alopecurus myosuroides); test: Test A postemergence
Method in brief: as §1

corn (Zea mays) = test: Test A postemergence
Method in brief: as §1

[4] = system: ryegrass, Italian (Italian ryegrass, Lolium multiflorum); test: Test A postemergence; conditions: postemergence, 0 to 100 scale (0 no effect, 100 complete control)
Method in brief: as §1

[5] = system: ragweed (common ragweed, Ambrosia elatior); test: Test A postemergence; conditions: postemergence, 0 to 100 scale (0 no effect, 100 complete control)
Method in brief: as §1

[6] = system: barnyardgrass (Echinochloa crus-galli); test: Test A postemergence
Method in brief: as §1

[7] = system: pigweed (Amaranthus retroflexus); test: Test A postemergence; conditions: postemergence, 0 to 100 scale (0 no effect, 100 complete control)
Method in brief: as §1

[8] = system: Galium (catchweed bedstraw, Galium aparine); test: Test A postemergence; conditions: postemergence, 0 to 100 scale (0 no effect, 100 complete control)
Method in brief: as §1

[9] = system: giant foxtail (Setaria faberii); test: Test A postemergence; conditions: postemergence, 0 to 100 scale (0 no effect, 100 complete control)
Method in brief: as §1

rice (Oryza sativa) = test: Test C flooded paddy test; conditions: Flood, 0 is no effect, 100 is complete control
Method in brief: (§2)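 Compound was added directly to paddy water held 3 cm above the soil, with plants at the 2-leaf stage. Injury was scored visually versus untreated controls after 13–15 d greenhouse growth, using a 0–100 scale where 100 means complete control.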

[10] = system: sedge, umbrella (small-flower umbrella sedge, Cyperus difformis); test: Test C flooded paddy test; conditions: Flood, 0 is no effect, 100 is complete control
Method in brief: as §2

[11] = system: barnyardgrass (Echinochloa crus-galli); test: Test C flooded paddy test; conditions: Flood, 0 is no effect, 100 is complete control
Method in brief: as §2

[12] = system: ducksalad (Heteranthera limosa); test: Test C flooded paddy test; conditions: Flood, 0 is no effect, 100 is complete control
Method in brief: as §2

Kochia (Kochia scoparia) [13] = test: Test A preemergence
Method in brief: as §1

[14] = system: ryegrass, Italian (Italian ryegrass, Lolium multiflorum); test: Test A preemergence
Method in brief: as §1

[15] = system: ragweed (common ragweed, Ambrosia elatior); test: Test A preemergence
Method in brief: as §1

[16] = system: barnyardgrass (Echinochloa crus-galli); test: Test A preemergence
Method in brief: as §1

[17] = system: pigweed (Amaranthus retroflexus); test: Test A preemergence
[18] = system: giant foxtail (Setaria faberii); test: Test A preemergence
Method in brief: as §1

[19] = system: sedge, umbrella (small-flower umbrella sedge, Cyperus difformis); test: Test B flooded paddy test; conditions: Flood, 250 g ai/ha; 0 to 100 scale where 0 is no effect and 100 is complete control; 13 to 15 d
Method in brief: (§3)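 Compound goes directly into floodwater once pots are flooded 3 cm above soil, targeting plants at two leaves; the water depth is then held for the test duration. Plants sit 13–15 d in a greenhouse and are rated visually, 100 denoting complete control.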

[20] = system: barnyardgrass (Echinochloa crus-galli); test: Test B flooded paddy test; conditions: Flood, 250 g ai/ha; 0 to 100 scale where 0 is no effect and 100 is complete control; 13 to 15 d
Method in brief: as §3

rice (Oryra sativa) = test: Test B flooded paddy test; conditions: Flood, 250 g ai/ha; 0 to 100 scale where 0 is no effect and 100 is complete control; 13 to 15 d
Method in brief: as §3

[21] = system: ducksalad (Heteranthera limosa); test: Test B flooded paddy test; conditions: Flood, 250 g ai/ha; 0 to 100 scale where 0 is no effect and 100 is complete control; 13 to 15 d
Method in brief: as §3

[22] = 125 g ai/ha, visual rating after approx. 10 d
[23] = 500 g ai/ha, visual injury, approx. 10 d
[24] = 125 g ai/ha, postemergence, visual rating after approx. 10 d, 0 to 100 scale (0 no effect, 100 complete control)
[25] = Postemergence, 500 g ai/ha, 0 to 100 scale where 0 is no effect and 100 is complete control
[26] = 125 g ai/ha, Preemergence, visual injury after approximately 10 d, 0 to 100 scale where 0 is no effect and 100 is complete control
[27] = 500 g ai/ha, preemergence, 0 to 100 scale, 0 = no effect, 100 = complete control

CN1CC(c2cccc(F)c2)C(C(=O)Nc2ccc(F)cc2F)C1=O (stereo not shown) [Compound 633]
Plant response rating, Wheat [1, 22]: 0
Plant response rating, Wheat [1, 23]: 40
Plant response rating, Kochia (Kochia (Kochia scoparia) [2]; [22]): 40
Plant response rating, Kochia (Kochia (Kochia scoparia) [2]; [23]): 60
Plant response rating, Blackgrass [3, 24]: 20
Plant response rating, Blackgrass [3, 25]: 50
Plant response rating, Corn (corn (Zea mays); [24]): 0
Plant response rating, Corn (corn (Zea mays); [25]): 60
Plant response rating, Ryegrass, Italian [4, 22]: 0
Plant response rating, Ryegrass, Italian [4, 23]: 50
Plant response rating, Ragweed [5, 22]: 0
Plant response rating, Ragweed [5, 23]: 0
Plant response rating, Barnyardgrass [6, 24]: 90
Plant response rating, Barnyardgrass [6, 25]: 90
Plant response rating, Pigweed [7, 22]: 0
Plant response rating, Pigweed [7, 23]: 0
Plant response rating, Galium [8, 22]: 0
Plant response rating, Galium [8, 23]: 50
Plant response rating, Foxtail, Giant [9, 22]: 90
Plant response rating, Foxtail, Giant [9, 23]: 90
Plant response rating (scale of 0 to 100), Rice (rice (Oryza sativa); 31 g ai/ha): 0
Plant response rating (scale of 0 to 100), Rice (rice (Oryza sativa); 62 g ai/ha): 0
Plant response rating (scale of 0 to 100), Rice (rice (Oryza sativa); 125 g ai/ha): 0
Plant response rating (scale of 0 to 100), Rice (rice (Oryza sativa); 250 g ai/ha): 10
Plant response rating (scale of 0 to 100), Sedge, Umbrella ([10]; 31 g ai/ha): 0
Plant response rating (scale of 0 to 100), Sedge, Umbrella ([10]; 62 g ai/ha): 0
Plant response rating (scale of 0 to 100), Sedge, Umbrella ([10]; 125 g ai/ha): 0
Plant response rating (scale of 0 to 100), Sedge, Umbrella ([10]; 250 g ai/ha): 0
Plant response rating (scale of 0 to 100), Barnyardgrass ([11]; 31 g ai/ha): 10
Plant response rating (scale of 0 to 100), Barnyardgrass ([11]; 62 g ai/ha): 40
Plant response rating (scale of 0 to 100), Barnyardgrass ([11]; 125 g ai/ha): 55
Plant response rating (scale of 0 to 100), Barnyardgrass ([11]; 250 g ai/ha): 70
Plant response rating (scale of 0 to 100), Ducksalad ([12]; 31 g ai/ha): 0
Plant response rating (scale of 0 to 100), Ducksalad ([12]; 62 g ai/ha): 60
Plant response rating (scale of 0 to 100), Ducksalad ([12]; 125 g ai/ha): 75
Plant response rating (scale of 0 to 100), Ducksalad ([12]; 250 g ai/ha): 100
Plant response rating, Kochia (Kochia (Kochia scoparia) [13]; [26]): 30
Plant response rating, Kochia (Kochia (Kochia scoparia) [13]; [27]): 50
Plant response rating, Ryegrass, Italian [14, 26]: 30
Plant response rating, Ryegrass, Italian [14, 27]: 60
Plant response rating, Ragweed [15, 26]: 0
Plant response rating, Ragweed [15, 27]: 50
Plant response rating, Barnyardgrass [16, 26]: 90
Plant response rating, Barnyardgrass [16, 27]: 90
Plant response rating, Pigweed [17, 26]: 0
Plant response rating, Pigweed [17, 27]: 50
Plant response rating, Foxtail, Giant [18, 26]: 90
Plant response rating, Foxtail, Giant [18, 27]: 90
Plant response rating, Sedge, Umbrella [19]: 0
Plant response rating, Barnyardgrass [20]: 90
Plant response rating, Rice (rice (Oryra sativa)): 20
Plant response rating, Ducksalad [21]: 100
